Results published in paper PMC7946002, “The development of novel cytochrome P450 2J2 (CYP2J2) inhibitor and the underlying interaction between inhibitor and CYP2J2” (Journal of Enzyme Inhibition and Medicinal Chemistry, 2021).

Legend:
[1] = target: T1, Human recombinant CYP2J2 (Homo sapiens, UniProt P51589); assay: Inhibition activity of Piperine derivatives towards CYP2J2 (BnXPI probe, IC50); assay type: biochemical; conditions: for IC50: CYP2J2 3.75 pmol/mL, BnXPI 4 μM, 30 min, triplicate, mean ± SD, read-out: Inhibitory activity (IC50) CYP2J2; for increase of inhibition activity compared with Piperine: IC50 versus Piperine
T1 construct: purchased Cypex (Scotland, UK)
T1 sequence (P51589 1-502): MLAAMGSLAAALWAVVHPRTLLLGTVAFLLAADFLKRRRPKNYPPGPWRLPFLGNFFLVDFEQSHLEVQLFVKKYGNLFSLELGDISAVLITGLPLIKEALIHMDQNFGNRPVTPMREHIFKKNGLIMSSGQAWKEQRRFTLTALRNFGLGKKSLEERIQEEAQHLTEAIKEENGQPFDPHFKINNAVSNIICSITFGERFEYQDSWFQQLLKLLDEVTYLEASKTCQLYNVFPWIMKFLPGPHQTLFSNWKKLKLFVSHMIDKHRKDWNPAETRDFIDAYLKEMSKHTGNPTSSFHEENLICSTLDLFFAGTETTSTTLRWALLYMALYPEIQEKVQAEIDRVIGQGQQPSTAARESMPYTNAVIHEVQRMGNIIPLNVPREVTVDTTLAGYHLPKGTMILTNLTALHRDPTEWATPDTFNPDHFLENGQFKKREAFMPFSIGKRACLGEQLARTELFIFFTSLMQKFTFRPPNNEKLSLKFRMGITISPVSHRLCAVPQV
Protocol: In our previous study, BnXPI was developed to be the first selective fluorescent probe for CYP2J2[24]. Thus, with the help of the fast and sensitive advantages of fluorescence technology, the potential inhibitory effect of 108 herbal medicines (Table S1) towards CYP2J2 was screened. In brief, in the standard incubation system (100 mM phosphoric acid buffer, pH 7.4, NADPH generate system, BnXPI and extract of herbal medicines), BnXPI was set at 4 μM, and the concentration of CYP2J2 was 0.01 nmol/mL, after the pre-incubation of BnXPI and herbal medicines (final concentration was 20 μg/mL) for 3 min, NADP^+ was added to initiate the reaction. After additional 30 min (mins) incubation, 100 μL ice acetonitrile was added to terminate the reaction and followed a 20000 g centrifugation at 4 °C, the supernatant was collected and assay on a Synergy H1 Microplate Reader (Bio-Tek). The blank solvent replaces the extract of herbal medicines was set as the control group. According to the screening method mentioned above, various concentration of Piperine derivatives were added into our standard incubation system and incubated with CYP2J2, probe BnXPI for 30 min. The concentration of CYP2J2 was set at 3.75 pmol/mL, the concentration of BnXPI was 4 μM. The control group was added blank solvent instead of the inhibitors.

[2] = target: T1, Human recombinant CYP2J2; assay: Inhibition kinetic study towards CYP2J2 (Lineweaver-Burk and Dixon plots); assay type: biochemical; conditions: for Ki: BnXPI 0–8 μM; for inhibition type towards CYP2J2: intersection point in Lineweaver–Burk plot
Protocol: In order to clarify the inhibition type of compound 9a, 9k, and 9l towards CYP2J2, the inhibition kinetics were also performed. Briefly, the inhibition activity of target compounds towards the metabolism kinetic of BnPXI (0–8 μM) mediated by CYP2J2 was determinated under the different concentrations of inhibitors. At last, Lineweaver–Burk and Dixon plots were used to fit the data as previously described[25]^,[26]. The inhibition kinetic type was evaluated by determining the intersection point in the Lineweaver–Burk plots. […] (1) v=Vmax/1+Km/[S](1+[I]/Ki) (2) v=Vmax/(1+Km/[S])(1+[I]/Ki) (3) v=Vmax/(1+Km/[S]+[I]/Ki) (4) v=Vmax/Km/[S](1+[I]/Ki)+(1+[I]/αKi)

Compound	IC50 [1] [nM]	Ki [2] [nM]	increase of inhibition activity compared with Piperine [1]	inhibition type towards CYP2J2 [2]
O=C(/C=C/C=C/c1ccc2c(c1)OCO2)N1CCCCC1 [9a, (2E,4E)-5-(benzo[d][1,3]dioxol-5-yl)-1-(piperidin-1-yl)penta-2,4-dien-1-one]	440 ± 50	500		
O=C(/C=C/C=C/c1ccc2c(c1)OCO2)NC1CC1 [9b, (2E,4E)-5-(benzo[d][1,3]dioxol-5-yl)-N-cyclopropylpenta-2,4-dienamide]	4720 ± 730			
O=C(/C=C/C=C/c1ccc2c(c1)OCO2)N1CCCC1 [9c, (2E,4E)-5-(benzo[d][1,3]dioxol-5-yl)-1-(pyrrolidin-1-yl)penta-2,4-dien-1-one]	1580 ± 220			
O=C(/C=C/C=C/c1ccc2c(c1)OCO2)NC12CC3CC(CC(C3)C1)C2 [9d, (2E,4E)-N-((3s,5s,7s)-adamantan-1-yl)-5-(benzo[d][1,3]dioxol-5-yl)penta-2,4-dienamide]	9330 ± 1060			
O=C(/C=C/C=C/c1ccc2c(c1)OCO2)N1CCOCC1 [9e, (2E,4E)-5-(benzo[d][1,3]dioxol-5-yl)-1-morpholinopenta-2,4-dien-1-one]	12000 ± 1350			
C[C@@H]1COCCN1C(=O)/C=C/C=C/c1ccc2c(c1)OCO2 [9f, (2E,4E)-5-(benzo[d][1,3]dioxol-5-yl)-1-((R)-3-methylmorpholino)penta-2,4-dien-1-one]	4660 ± 560			
C[C@H]1COCCN1C(=O)/C=C/C=C/c1ccc2c(c1)OCO2 [9g, (2E,4E)-5-(benzo[d][1,3]dioxol-5-yl)-1-((S)-3-methylmorpholino)penta-2,4-dien-1-one]	2250 ± 560			
O=C(/C=C/C=C/c1ccc2c(c1)OCO2)N1CCSCC1 [9h, (2E,4E)-5-(benzo[d][1,3]dioxol-5-yl)-1-thiomorpholinopenta-2,4-dien-1-one]	750 ± 80			
O=C(/C=C/C=C/c1ccc2c(c1)OCO2)N1CCS(=O)(=O)CC1 [9i, (2E,4E)-5-(benzo[d][1,3]dioxol-5-yl)-1–(1,1-dioxidothiomorpholino)penta-2,4-dien-1-one]	1240 ± 450			
CN(C)CCNC(=O)/C=C/C=C/c1ccc2c(c1)OCO2 [9j, (2E,4E)-5-(benzo[d][1,3]dioxol-5-yl)-N-(2-(dimethylamino)ethyl)penta-2,4-dienamide]	11800 ± 1470			
CC(C)CN(CC(C)C)C(=O)/C=C/C=C/c1ccc2c(c1)OCO2 [9k, (2E,4E)-5-(benzo[d][1,3]dioxol-5-yl)-N,N-diisobutylpenta-2,4-dienamide]	40 ± 8	110	about 10 folds	competitive inhibition model
O=C(/C=C/C=C/c1ccc2c(c1)OCO2)NCc1ccc(F)cc1 [9l, (2E,4E)-5-(benzo[d][1,3]dioxol-5-yl)-N-(4-fluorobenzyl)penta-2,4-dienamide]	50 ± 5	74	about 10 folds	competitive inhibition model
